# Experiments:
# Format in all cases: in vivo
# [1] = Changes in concentration in lung tissues and in plasma upon intra-airway (intrabronchial) administration; details: SD rats, 4 mg/kg; for AUC in lung tissues (concentration in lung tissues) / AUC in plasma (concentration in plasma): 0.25-4 hours; for half-life / Kp: male, rat, other: intrabronchial; for half-life: in vivo, read-out: biological half-life (T1/2) (converted); for Kp: lung tissue / plasma, read-out: ratio of concentration in lung tissues to concentration in plasma (AUC)
# Method: Male rats of SD strain (Nippon Charles Liver, Kanagawa) were bred under the condition of temperature of 23±1° C. and humidity of 55±5%, and those where body weight was 210 to 240 g at seven weeks age were used for the test. Administration of the test compound (Compound (II)) was conducted under a non-fasting condition, and during the test, solid feed (F-2; Funahashi Nojo, Chiba) and tap water were freely taken by them. Case numbers for the test was made n=2 for each stage.
# According to a conventional method, the preparations of Compound (II) and RP 73401 being known as a PDE-IV inhibitor [drawing 9] [J. Med. Chem., volume 37, pages 1696-1703 (1994)] were prepared (lactose/Compound (II) or RP 73401=5/1), and each of them was suspended in 0.125 weight/volume % tyloxapol (Alevaire: registered trade mark, Nippon Shoji, Osaka). The resulting suspension was further diluted with 0.125 weight/volume % tyloxapol containing 0.25 weight/volume % of lactose (Pharmatose 325 M; registered trade mark, DMV International, Veghel, The Nethelands) (a solvent for administration), and a suspension for administration of Compound (II) or RP 73401 having an desired concentration was prepared.
# Each of Compound (II) and RP 73401 was intrabronchially administered at a dose of 4 mg/kg, respectively. The solvent for administration or the suspension for administration of Compound (II) or RP 73401 was intrabronchially administered to each of right and left bronchi of an ether-anesthetized rat at a dose of 100 μL (200 μL in total) using a disposable oral sound (for mice; Fuchigami Kikai, Kyoto).
# At each of stages of 0.25, 0.5, 1, 2 and 4 hours after the intrabronchial administration, abdomen of rat under a light anesthetization with ether was incised, and about 1 mL of blood was collected from a descending vena cava using a heparin-treated syringe (24 G; 1 mL; Thermo, Tokyo). Plasma was separated from the blood using a cooling centrifugal separator and stored by freezing at −20° C. until the measurement. After washing the pulmonary alveoli, the bronchus was resected to collect the lung. The wet weight of the lung was measured and the lung was stored by freezing.
# To 100 μL of the plasma collected hereinabove was added a 200 μL of methanol solution of 25 μg/mL 7-[2-(3,5-dichloro-4-pyridyl)-1-oxoethyl]-4-methoxy-spiro-[1,3-benzodioxole-2,1′-cyclohexane] (an internal standard substance), and the mixture was stirred. The mixture was allowed to stand for 10 minutes on ice, followed by centrifuged, and then 200 μL of the supernatant was dried under a nitrogen flow. The resulting solid was dissolved in 200 μL of methanol and centrifuged. The resulting supernatant was subjected to centrifugal filtration using a centrifugal filtration unit ultrafree (C3GV; 0.22 μm; Nippon Millipore, Tokyo). The filtrate (100 μL) was used as a plasma sample and concentrations of Compound (II) and RP 73401 were measured using a mass spectrometer (LC/MS/MS).
# In an immunotube (15 mL: Nunc, Glostrup, Denmark), to the lung prepared hereinabove was added the internal standard substance in which the concentration to the lung tissues was previously made 10 μg/g lung tissues, and the mixture was dried under a nitrogen flow. To the resulting solid was added pure water (Milli-Q SP Reagent Water System: Nippon Millipore, Tokyo) in an amount of one-fold to the wet weight followed by subjecting to homogenizing using a homogenator (Ikemoto Rika Kogyo, Tokyo). A two-fold amount of methanol was further added thereto and the mixture was homogenized, allowed to stand for 10 minutes on ice and centrifuged. The supernatant (300 μL) was taken into a microtube and centrifuged once again. The resulting supernatant (100 μL) was used as a lung sample, and concentrations of Compound (II) and RP 73401 were measured by using of a high-performance liquid chromatography (HPLC).
# [2] = test system: antigen-induced eosinophil infiltration; assay: Antigen-induced eosinophil infiltration, intrabronchial administration (BALF cell count); details: BN rats; for Number of eosinophils: BAL 24 hours after antigenic exposure, mean ± standard error; for inhibitory effect to infiltration of eosinophils induced by antigen (in words): 30 to 100 μg/rat
# Method: (§1) The test was conducted in accordance with a known method [Pulmonary Pharmacology, volume 8, pages 83-89 (1995)].
# (§2) Male BN rats of six weeks age (Nippon Charles Liver) were used for the test. Five to six rats were put in each plastic cage in a breeding room where the room temperature was 19 to 25° C., humidity was 30 to 70% and a daily illumination was 12 hours (from 7 a.m. to 7 p.m.), and breeding was conducted where commercially available solid feed and water were freely taken by the rats.
# (§3) A suspension (1 mL) of 1 mg of ovalbumin (OVA; manufactured by Sigma) and 200 mg of aluminum hydroxide (manufactured by Wako Pure Chemical) in 1 mL of a physiological saline (manufactured by Otsuka Pharmaceutical) was subcutaneously administered to each rat, and then 0.5 mL of a suspension of killed Virdetella pertussis (2×10^10 cells/mL physiological saline solution; manufactured by Kaken Pharmaceutical) was intraperitoneally administered to conduct active sensitization. After 14 days from the active sensitization, the rats were placed in a plastic chamber (30×50×30 cm) and subjected to an antigenic exposure by nebulizing of an 1 weight/volume % solution of OVA in a physiological saline for 10 minutes. For the nebulizing, an ultrasonic nebulizer (manufactured by Omron) was used.
# (§4) By the same manner as in Test Example 1, a suspension for administration of Compound (II) was prepared and intrabronchially administered to the sensitized rats.
# (§5) Before 30 minutes of the antigenic exposure, the solvent for administration or the suspension for administration of Compound (II) was intrabronchially administered to the sensitized rats at a dose of 100 μL to each of right and left bronchi (200 μL in total). A group where a suspension for administration of Compound (II) was intrabronchially administered to the sensitized rat and an 1 weight/volume % OVA-physiological saline solution was nebulized, was called a Compound (II)-administered group; a group where the solvent for administration was intrabronchially administered to the sensitized rat and an 1 weight/volume % OVA-physiological saline solution was nebulized, was called a solvent-administered group; and a group where the solvent for administration was intrabronchially administered and a physiological saline was nebulized, was called a physiological saline group.
# (§6) After 24 hours of the antigenic exposure or of the nebulizing with a physiological saline, a broncho-alveolar lavage (BAL) was conducted. Thus, a rat was anesthetized by an intraperitoneal administration of pentobarbital (manufactured by Dainippon Pharmaceutical) and pulmonary alveoli cavity was washed with a physiological saline via an airway cannula to prepare a broncho-alveolar lavage fluid (BALF).
# (§7) The BALF was centrifuged under the condition of 950 rpm (200×g) at 4° C. for 10 minutes, the precipitated cells were suspended in 1 mL of a physiological saline, and total leukocyte numbers were measured by an automatic blood corpuscle counter (manufactured by Nippon Koden). Smeared samples of cells were also prepared using Cytospin III (manufactured by Shandon). After the smeared sample was subjected to a Giemsa staining, 500 cells were observed under an optical microscope, numbers of eosinophils and neutrophils were counted and their ratios were calculated. Number of eosinophils and number of neutrophils were calculated by multiplying the total leukocyte numbers by each ratio of number of eosinophils and number of neutrophils, respectively. Inhibition rate (%) to increases of number of eosinophils and number of neutrophils respectively in BALF was calculated according to the following. [formula]
# (§8) A: Numbrer of eosinophils or neutrophils in the solvent-administering group
# (§9) B: Numbrer of eosinophils or neutrophils in the Compound (II)-administered group
# (§10) C: Numbrer of eosinophils or neutrophils in the physiological saline group
# [3] = test system: antigen-induced neutrophil infiltration; assay: Antigen-induced neutrophil infiltration, intrabronchial administration (BALF cell count); details: BN rats; for Number of neutrophils: BAL 24 hours after antigenic exposure, mean ± standard error; for inhibitory effect to infiltration of neutrophils induced by antigen (in words): 30 to 100 μg/rat
# Method: as §1, §2, §3, §4, §5, §6, §7, §8, §9, §10
# gastric excretion = assay: Inhibitory activity for gastric excretion by intrabronchial administration (Phenol Red method); details: SD rats, intrabronchial 30 minutes before P-C solution, 30 to 100 μg/rat
# Method: Male SD rats (six weeks age; body weight upon purchase was 180 to 200 g; Nippon SLC) were used for the test. The rats were bred in an animal room where room temperature was 23±1° C., humidity was 55±5% and solid feed and drinking water were made freely taken by them.
# Suspensions for administration of Compound (II) and RP 73401 were prepared by the same manner as in Test Example 1 and each of them was subjected to an intrabronchial administration.
# The rats (body weight used for the experiment: about 200 g) were fasted on the day before the test (before about 24 hours) and were bred only by drinking water. A test for gastric excretion was conducted according to a Phenol Red method [Arch. Int. […]
# A 1.5 mL of an 1.5 weight/volume % carboxymethyl cellulose (CMC) solution containing a 0.05 weight/volume % Phenol Red (hereinafter, referred to as P—C solution) was orally administered to the rats where one group comprised six rats. […] The extirpated stomach was incised in 40 mL of a 0.1 mol/L aqueous NaOH solution to recover the P—C solution and the amount of Phenol Red remaining in the stomach was measured. […] The gastric excretion ratio (%) in the agent-administered group or the solvent-administered group was calculated by the following equation (1) while the inhibition rate (%) of the agent to the gastric excretion was calculated from the gastric excretion ratio using the following equation (2). […]
AUC in lung tissues (concentration in lung tissues) [1] [µg·h/mL],AUC in plasma (concentration in plasma) [1] [µg·h/mL],half-life [1] [h],Kp [1],Compound,Inhibition rate to increase of number of eosinophils in BALF ([2]; 30 μg/rat) [%],Number of eosinophils ([2]; 30 μg/rat),Inhibition rate to increase of number of eosinophils in BALF ([2]; 100 μg/rat) [%],Number of eosinophils ([2]; 100 μg/rat),inhibitory effect to infiltration of eosinophils induced by antigen (in words) [2],Inhibition rate to increase of number of neutrophils in BALF ([3]; 30 μg/rat) [%],Number of neutrophils ([3]; 30 μg/rat),Inhibition rate to increase of number of neutrophils in BALF ([3]; 100 μg/rat) [%],Number of neutrophils ([3]; 100 μg/rat),inhibitory effect to infiltration of neutrophils induced by antigen (in words) [3],inhibitory effect to gastric excretion (in words) (gastric excretion)
3640,0.733,3.81,4970,"COc1ccc(C(=O)Cc2c(Cl)cncc2Cl)c2c1OC1(CCCC1)O2 [Compound (II), 7-[2-(3,5-dichloro-4-pyridyl)-1-oxoethyl]-4-methoxy-spiro-[1,3-benzodioxole-2,1′-cyclopentane]]",50,0.09 ± 0.03 10^6/BALF,86,0.04 ± 0.01^## 10^6/BALF,inhibited,56,0.64 ± 0.14 10^6/BALF,80,0.43 ± 0.06^# 10^6/BALF,inhibited,no significant inhibitory effect to gastric excretion was observed
248,0.826,0.341,300,"COc1ccc(C(=O)Nc2c(Cl)cncc2Cl)cc1OC1CCCC1 [RP 73401, reference compound]",–,–,–,–,significant inhibitory activity,–,–,–,–,significant inhibitory activity,a dose-depending inhibitory effect to gastric excretion was observed

# Reference: US20060239927A1, “Drug for airway administration” (Kyowa Hakko Kogyo Co.,, priority 2003, published 2006)
